PubChem BioAssay AID248 (DTP/NCI, 2004)
Values joined by “and” are separate entries in the source; they are usually repeats but may differ in a detail not shown here. Identical values can stand only once. Toxic doses and inconclusive results are not listed.

Test system: L1210 leukemia ip in BDF1 mice, survival T/C
Experiment: NCI In Vivo Anticancer Drug Screen. Data for tumor model L1210 Leukemia (intraperitoneal) in B6D2F1 (BDF1) mice
Settings: endpoint: mean survival time, higher = longer survival
Method in brief: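 Tumor cells were implanted, animals were treated, and survival was followed. The result divides the treated measurement by the vehicle-control measurement.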

[1] = dose: 50.0 mg/kg/injection, schedule: Q01DX009 (ip), vehicle: saline
[2] = dose: 100.0 mg/kg/injection, schedule: Q01DX009 (ip), vehicle: saline
[3] = dose: 200.0 mg/kg/injection, schedule: Q01DX009 (ip), vehicle: saline
[4] = dose: 100.0 mg/kg/injection, schedule: Q01DX009 (ip), vehicle: Klucel (hydroxypropylcellulose) (HPC)
[5] = dose: 200.0 mg/kg/injection, schedule: Q01DX009 (ip), vehicle: Klucel (hydroxypropylcellulose) (HPC)
[6] = dose: 400.0 mg/kg/injection, schedule: Q01DX009 (ip), vehicle: Klucel (hydroxypropylcellulose) (HPC)
[7] = dose: 100.0 mg/kg/injection, schedule: Q04DX003 (ip), vehicle: saline with Tween-80
[8] = dose: 100.0 mg/kg/injection, schedule: Q01DX001 (ip), vehicle: Klucel (hydroxypropylcellulose) (HPC)
[9] = dose: 200.0 mg/kg/injection, schedule: Q01DX001 (ip), vehicle: Klucel (hydroxypropylcellulose) (HPC)
[10] = dose: 100.0 mg/kg/injection, schedule: Q01DX001 (ip), vehicle: carboxymethylcellulose (CMC)
[11] = dose: 200.0 mg/kg/injection, schedule: Q01DX001 (ip), vehicle: carboxymethylcellulose (CMC)
[12] = dose: 400.0 mg/kg/injection, schedule: Q01DX001 (ip), vehicle: carboxymethylcellulose (CMC)
[13] = dose: 100.0 mg/kg/injection, schedule: Q01DX001 (ip), vehicle: other
[14] = dose: 200.0 mg/kg/injection, schedule: Q01DX001 (ip), vehicle: other
[15] = dose: 400.0 mg/kg/injection, schedule: Q01DX001 (ip), vehicle: other
[16] = dose: 100.0 mg/kg/injection, schedule: Q04DX003 (ip), vehicle: Klucel (hydroxypropylcellulose) (HPC)
[17] = dose: 200.0 mg/kg/injection, schedule: Q04DX003 (ip), vehicle: Klucel (hydroxypropylcellulose) (HPC)
[18] = dose: 400.0 mg/kg/injection, schedule: Q04DX003 (ip), vehicle: Klucel (hydroxypropylcellulose) (HPC)
[19] = dose: 50.0 mg/kg/injection, schedule: Q01DX009 (ip), vehicle: saline with Tween-80
[20] = dose: 100.0 mg/kg/injection, schedule: Q01DX009 (ip), vehicle: saline with Tween-80
[21] = dose: 100.0 mg/kg/injection, schedule: Q01DX001 (ip), vehicle: saline
[22] = dose: 100.0 mg/kg/injection, schedule: Q01DX Z (ip), vehicle: methylcellulose (MC)
[23] = dose: 200.0 mg/kg/injection, schedule: Q01DX001 (ip), vehicle: saline
[24] = dose: 400.0 mg/kg/injection, schedule: Q01DX001 (ip), vehicle: saline

SMILES: O=c1c(O)c(-c2ccc(O)c(O)c2)oc2cc(O)cc(O)c12
- T/C (dose: 25.0 mg/kg/injection, schedule: Q01DX009 (ip), vehicle: saline): 115 % of control
- T/C [1]: 105 % of control
- T/C [2]: 103 % of control
- T/C [3]: 104 % of control and 120 % of control

SMILES: N.N.N.N.N.N#CN=C(N)N.[Co+3].[O-][Cl+3]([O-])([O-])[O-]
- T/C (dose: 100.0 mg/kg/injection, schedule: Q04DX002 (ip), vehicle: saline): 171 % of control

SMILES: CCN1CSC(=S)N(CC)C1
- T/C (dose: 12.5 mg/kg/injection, schedule: Q04DX003 (ip), vehicle: Klucel (hydroxypropylcellulose) (HPC)): 96 % of control
- T/C (dose: 25.0 mg/kg/injection, schedule: Q01DX009 (ip), vehicle: Klucel (hydroxypropylcellulose) (HPC)): 103 % of control
- T/C (dose: 25.0 mg/kg/injection, schedule: Q04DX003 (ip), vehicle: Klucel (hydroxypropylcellulose) (HPC)): 112 % of control
- T/C (dose: 50.0 mg/kg/injection, schedule: Q01DX009 (ip), vehicle: Klucel (hydroxypropylcellulose) (HPC)): 109 % of control
- T/C (dose: 50.0 mg/kg/injection, schedule: Q04DX003 (ip), vehicle: Klucel (hydroxypropylcellulose) (HPC)): 103 % of control

SMILES: C=CCNC(=S)Nc1cccc(OC(=O)NC(C)(C)C)c1
- T/C [4]: 90 % of control
- T/C [5]: 90 % of control
- T/C [6]: 92 % of control

SMILES: COc1ccc2c(c1)C(CO)c1ccc(Cl)cc1N2 (stereo unspecified)
- T/C [7]: 93 % of control
- T/C (dose: 200.0 mg/kg/injection, schedule: Q04DX003 (ip), vehicle: saline with Tween-80): 96 % of control
- T/C (dose: 400.0 mg/kg/injection, schedule: Q04DX003 (ip), vehicle: saline with Tween-80): 94 % of control

SMILES: N=C1C(=O)c2ccccc2-c2ccccc21
- T/C [8]: 97 % of control
- T/C [9]: 98 % of control
- T/C (dose: 400.0 mg/kg/injection, schedule: Q01DX001 (ip), vehicle: Klucel (hydroxypropylcellulose) (HPC)): 98 % of control

SMILES: S=P(NCCCCCCNP(=S)(N1CC1)N1CC1)(N1CC1)N1CC1
- T/C [10]: 104 % of control
- T/C [11]: 112 % of control
- T/C [12]: 119 % of control

SMILES: CCC(C)COC(=O)Nc1cccc(Cl)c1 (stereo unspecified)
- T/C [13]: 102 % of control
- T/C [14]: 107 % of control
- T/C [15]: 105 % of control

SMILES: CNC(=S)N(N)c1ccccc1
- T/C [4]: 104 % of control
- T/C [16]: 93 % of control
- T/C [5]: 101 % of control
- T/C [17]: 103 % of control
- T/C [18]: 101 % of control

SMILES: CCCCC(O)(C#CC(O)(CC)CCCC)CC (stereo unspecified)
- T/C [13]: 103 % of control
- T/C [14]: 105 % of control
- T/C [15]: 102 % of control

SMILES: COc1ccc(/C=N/NC(=O)C[n+]2ccccc2)c(OC)c1
- T/C (dose: 25.0 mg/kg/injection, schedule: Q01DX009 (ip), vehicle: saline with Tween-80): 110 % of control
- T/C [19]: 101 % of control
- T/C [20]: 103 % of control
- T/C [7]: 94 % of control

SMILES: N=c1ncn(C2OC(COP(=O)(O)O)C(O)C2O)c2nc[nH]c12 (stereo unspecified)
- T/C (dose: 1.56 mg/kg/injection, schedule: Q01DX005 (ip), vehicle: water): 102 % of control
- T/C (dose: 6.25 mg/kg/injection, schedule: Q01DX005 (ip), vehicle: water): 103 % of control
- T/C (dose: 12.5 mg/kg/injection, schedule: Q01DX005 (ip), vehicle: water): 105 % of control
- T/C (dose: 25.0 mg/kg/injection, schedule: Q01DX005 (ip), vehicle: water): 94 % of control

SMILES: CSCC(NC(C)=O)C(=O)O (stereo unspecified)
- T/C (dose: 50.0 mg/kg/injection, schedule: Q01DX001 (ip), vehicle: Klucel (hydroxypropylcellulose) (HPC)): 100 % of control
- T/C [8]: 98 % of control
- T/C [9]: 91 % of control

SMILES: C1O[C@@H]1[C@@H]1CO1
- T/C (dose: 10.5 mg/kg/injection, schedule: Q01DX015 (ip), vehicle: saline): 110 % of control
- T/C (dose: 18.0 mg/kg/injection, schedule: Q01DX015 (ip), vehicle: saline): 110 % of control
- T/C (dose: 44.0 mg/kg/injection, schedule: Q01DX001 (ip), vehicle: saline): 111 % of control and 116 % of control
- T/C (dose: 66.0 mg/kg/injection, schedule: Q01DX001 (ip), vehicle: saline): 150 % of control
- T/C [21]: 173 % of control
- T/C (dose: 100.0 mg/kg/injection, schedule: Q01DX010 (ip), vehicle: water): 167 % of control
- T/C (dose: 200.0 mg/kg/injection, schedule: Q01DX010 (ip), vehicle: water): 186 % of control
- T/C (dose: 400.0 mg/kg/injection, schedule: Q01DX010 (ip), vehicle: water): 189 % of control
- T/C (dose: 600.0 mg/kg/injection, schedule: Q01DX010 (ip), vehicle: water): 157 % of control

SMILES: CC(C)Cc1ccccc1
- T/C [4]: 106 % of control
- T/C [16]: 110 % of control
- T/C [5]: 100 % of control
- T/C [17]: 96 % of control
- T/C [6]: 122 % of control
- T/C [18]: 96 % of control

SMILES: CC(=O)CC(=O)OCC1COCO1 (stereo unspecified)
- T/C (dose: 222.0 mg/kg/injection, schedule: Q01DX Z (ip), vehicle: methylcellulose (MC)): 104 % of control
- T/C (dose: 333.0 mg/kg/injection, schedule: Q01DX Z (ip), vehicle: methylcellulose (MC)): 95 % of control
- T/C (dose: 500.0 mg/kg/injection, schedule: Q01DX Z (ip), vehicle: methylcellulose (MC)): 107 % of control

SMILES: Cc1ccc[n+]2c1ccc1c3ccccc3ccc12
- T/C (dose: 10.0 mg/kg/injection, schedule: Q01DX001 (ip), vehicle: saline): 106 % of control

SMILES: Nc1cc(Cl)nc(Cl)n1
- T/C (dose: 29.0 mg/kg/injection, schedule: Q01DX Z (ip), vehicle: methylcellulose (MC)): 89 % of control
- T/C (dose: 45.0 mg/kg/injection, schedule: Q01DX Z (ip), vehicle: methylcellulose (MC)): 100 % of control
- T/C (dose: 67.0 mg/kg/injection, schedule: Q01DX Z (ip), vehicle: methylcellulose (MC)): 96 % of control
- T/C [22]: 92 % of control

SMILES: CNC(=S)N(C)N=O
- T/C [22]: 97 % of control
- T/C (dose: 200.0 mg/kg/injection, schedule: Q01DX Z (ip), vehicle: methylcellulose (MC)): 120 % of control

SMILES: Cc1ccnc(NS(=O)(=O)c2ccc(N=Nc3ccc(O)c4ncccc34)cc2)n1
- T/C [21]: 108 % of control
- T/C [23]: 100 % of control
- T/C [24]: 97 % of control

SMILES: O=C(O)C(F)(F)C(F)(F)C(=O)Nc1cc([N+](=O)[O-])ccc1F
- T/C [21]: 93 % of control
- T/C [23]: 93 % of control
- T/C [24]: 93 % of control

SMILES: NC(=S=O)c1ccccc1
- T/C [19]: 93 % of control
- T/C [1]: 101 % of control
- T/C [20]: 97 % of control
- T/C [2]: 96 % of control
- T/C (dose: 200.0 mg/kg/injection, schedule: Q01DX009 (ip), vehicle: saline with Tween-80): 93 % of control
- T/C [3]: 104 % of control

SMILES: CC1=C(C#N)C2(CCN(C)CC2)C(C#N)=C(C)N1
- T/C (dose: 75.0 mg/kg/injection, schedule: Q01DX001 (ip), vehicle: carboxymethylcellulose (CMC)): 105 % of control
- T/C (dose: 75.0 mg/kg/injection, schedule: Q01DX001 (ip), vehicle: saline): 104 % of control
- T/C (dose: 150.0 mg/kg/injection, schedule: Q01DX001 (ip), vehicle: carboxymethylcellulose (CMC)): 109 % of control

SMILES: COc1ccc(C(C)=O)c(OC)c1
- T/C [21]: 98 % of control
- T/C [2]: 112 % of control
- T/C [23]: 98 % of control
- T/C [3]: 94 % of control
- T/C [24]: 98 % of control
- T/C (dose: 400.0 mg/kg/injection, schedule: Q01DX009 (ip), vehicle: saline): 102 % of control

SMILES: CCC(CC)C(=O)OCC(C)(C)C
- T/C [10]: 96 % of control
- T/C [11]: 104 % of control
- T/C [12]: 96 % of control

SMILES: O=c1oc(-c2ccccc2)c(-c2ccccc2)o1
- T/C (dose: 100.0 mg/kg/injection, schedule: Q04DX002 (ip), vehicle: other): 100 % of control
- T/C (dose: 200.0 mg/kg/injection, schedule: Q04DX002 (ip), vehicle: other): 103 % of control
- T/C (dose: 400.0 mg/kg/injection, schedule: Q04DX002 (ip), vehicle: other): 96 % of control
